Patent publication US11359178B2, “Method for producing parasympathetic neurons” (NATIONAL INSTITUTE OF ADVANCED INDUSTRIAL SCIENCE AND …, priority 2018, dated 2022)

How the values were obtained:
[1] = test system: parasympathetic neurons obtained by culturing in the differentiation-inducing medium 3 (NDM+PMA+RA); settings: nicotine 1 μM; neurons induced in NDM+PMA+RA, 13th to 37th day from start of culturing
Description: Furthermore, response to nicotine stimulation for parasympathetic neurons obtained by culturing in the differentiation-inducing medium 3 (NDM+PMA+RA) was assessed by intracellular calcium imaging. 1 mg/mL Fluo-4 AM (Invitrogen, F14201)/DMSO was directly added to a medium on the differentiation induction culture 24th day at a final concentration of 5 μg/mL. After incubation in an incubator (37° C., 5% CO2) for 30 minutes, the medium was removed and replaced with Ringer's solution (149 mM NaCl, 2.8 mM KCl, 2 mM CaCl2, 1 mM MgCl2, 10 mM HEPES, 10 mM D-(+)-glucose [pH 7.4]), and changes in the intracellular calcium concentrations were measured by detecting changes in the fluorescence intensity. For the measurement, 300 frames were photographed at a frame rate of 2 fps using an Olympus microscope (IX81), EMCCD (Andor iXon), and MetaMorph Software (Molecular Devices). Additionally, nicotine stimulation was performed by adding nicotine to Ringer's solution at a final concentration of 1 μM. ImageJ was used for data analysis after measurement.

[2] = test system: autonomic neural progenitor cells; test: Induction of autonomic neural progenitor cells to differentiate into parasympathetic neurons, immune cell staining (TH, ChAT, PHOX2B, MAP2); format: cell-based, Human
Description: A 24-well plate coated with poly-L-ornithine and laminin was prepared by the following procedure. The plate was coated for one hour with a PLO solution (20 μg/mL) prepared with DW, washed once with DW, and coated for two hours with a laminin solution (5 μg/mL) prepared with PBS. Subsequently, the N2 medium was supplemented with 10 μM FSK, 10 ng/mL BDNF, 10 ng/mL GDNF, 10 ng/mL NT-3, 10 ng/mL NGF, and 50 μg/mL Ascorbic Acid (all final concentrations) to prepare a neural differentiation medium (NDM).
The following four kinds of differentiation-inducing media were prepared using NDM:
Differentiation-inducing medium 1: NDM+10 ng/mL PMA (final concentration)
Differentiation-inducing medium 2: NDM+1 μM RA (final concentration)
Differentiation-inducing medium 3: NDM+10 ng/mL PMA+1 μM RA (both final concentrations)
Differentiation-inducing medium 4: NDM only (by a known method)
The autonomic neural progenitor cells obtained by the above-described Step 5 were washed once with PBS, followed by addition of TrypLE Express Enzyme (250 μL/well), and cells were exfoliated by incubating the medium for five minutes. 10% FBS-containing DMEM was added to terminate the enzyme reaction, and the cells were collected in a centrifuge tube. After the medium was centrifuged at 200×g for four minutes, the supernatant was removed, cells were suspended with NDM, and the cells were counted. […] The media cultured for at least 20 days from the start of culturing with the differentiation-inducing media 1 to 4 were analyzed by immune staining and intracellular calcium imaging following the procedure described below. […]
The primary antibody solution was removed, and the plate was washed twice with 0.2% Tween 20/PBS, followed by addition of a secondary antibody/Can Get Signal Solution A (1000-fold diluted Alexa Fluro488 or 1000-fold diluted Alexa Fluor555) or 3000-fold diluted Hoechst 33342 solution, and the mixture was allowed to stand for one hour at room temperature. The secondary antibody solution was removed, and the plate was washed twice with 0.2% Tween 20/PBS and then observed under a fluorescence microscope.

GATA3 = settings: Yamashita et al. 2002; Th2 cell differentiation; cited from earlier work
[3] = differentiation induction 13th to 87th day from start of culturing, 10 ng/mL PMA and/or 1 μM RA in NDM, compared with NDM only (FIG. 2)

| Structure (SMILES) | response to nicotine stimulation (intracellular calcium, Fluo-4 AM fluorescence) [1] | differentiation induction efficiency ([2]; 13th to 87th day, single additive in NDM, compared with NDM only) | ChAT positive cells (parasympathetic neuron marker) [2, 3] | TH positive cells (sympathetic neuron marker) [2, 3] | expression of transcription factor GATA3 (GATA3) |
| --- | --- | --- | --- | --- | --- |
| CN1CCCC1c1cccnc1 (single isomer, unassigned; (-)) [nicotine, (−)-Nicotine] | strong response | – | – | – | – |
| CCCCCCCCCCCCCC(=O)O[C@@H]1[C@@H](C)[C@@]2(O)[C@@H](C=C(CO)C[C@]3(O)C(=O)C(C)=C[C@@H]23)[C@@H]2C(C)(C)[C@]12OC(C)=O [PMA, Phorbol 12-myristate 13-acetate] | – | reduced | markedly reduced | markedly reduced | enhance |
